From ChEMBL document CHEMBL5523691, “SAR study of N'-(Salicylidene)heteroarenecarbohydrazides as promising antifungal agents” (Bioorg Med Chem, 2024) come the findings set out here.

The structures appear in SMILES notation. Values after ≈ are worked out from the molar mass of the structure shown. Active and inactive are the calls of the source. The calls are words filed in the database; no cut-off is given here.

The term MIC80 denotes the lowest concentration that inhibits either 80% of growth or 80% of the strains tested, depending on the study.

Data set [1] can be described thus: Cytotoxicity against human A549 cells assessed as cell killing measured after 24 to 48 hrs by MTT assay. The class given is toxicity, cell-based. The settings on record: time 24-48 hrs, read-out: LD50 (the source's name). (Tetrazolium dyes change colour on reduction, which living cells bring about.)
In data set [2] the test system is Cryptococcus neoformans. Put plainly: Antifungal activity against wild type Cryptococcus neoformans H99 assessed as inhibition of fungal growth in presence of amphotericin B. The class given is functional.
The test system of data set [3] is Cryptococcus neoformans. Put plainly: Antifungal activity against wild type Cryptococcus neoformans H99 assessed as inhibition of fungal growth in presence of fluconazole. The class given is functional.
The subject of data set [4] is Cryptococcus neoformans. The data set can be described thus: Antifungal activity against wild type Cryptococcus neoformans H99 assessed as inhibition of fungal growth incubated for 24 to 72 hrs by optical density based analysis. The note with it: time 24-72 hrs. The class given is functional.
The subject of data set [5] is Cryptococcus neoformans. The data set can be described thus: Antagonistic antifungal activity against wild type Cryptococcus neoformans H99 in presence of amphotericin B. The class given is functional, organism-based.
Data set [6] deals with Cryptococcus neoformans. Put plainly: Synergistic antifungal activity against wild type Cryptococcus neoformans H99 assessed as fractional inhibitory concentration index in presence of amphotericin B. The class given is functional.
In data set [7] the test system is Candida albicans. The data set can be described thus: Antifungal activity against Candida albicans assessed as inhibition of fungal growth incubated for 24 to 72 hrs by optical density based analysis. The class given is functional. The note with it: time 24-72 hrs.
Data set [8] deals with Cryptococcus neoformans. Put plainly: Synergistic antifungal activity against wild type Cryptococcus neoformans H99 assessed as fractional inhibitory concentration index in presence of caspofungin. The class given is functional.
A short description of data set [9]: Selectivity index, ratio of LD50 for human A549 cells to MIC80 for Cryptococcus neoformans H99. The class given is toxicity. The settings on record: read-out: Selectivity Index.
For data set [10], the system named is Cryptococcus neoformans. Put plainly: Synergistic antifungal activity against wild type Cryptococcus neoformans H99 assessed as fractional inhibitory concentration index in presence of fluconazole. The class given is functional.
The test system of data set [11] is Cryptococcus neoformans. Put plainly: Fungicidal activity against wild type Cryptococcus neoformans H99 assessed as minimum concentration required to kill fungus measured after 24 hrs by time-kill assay. The class given is functional.
The test system of data set [12] is Cryptococcus neoformans. Put plainly: Antagonistic antifungal activity against wild type Cryptococcus neoformans H99 in presence of fluconazole. The class given is functional, organism-based.
In data set [13] the test system is Cryptococcus neoformans. The data set can be described thus: Antifungal activity against wild type Cryptococcus neoformans H99 assessed as inhibition of fungal growth in presence of caspofungin. The class given is functional.
Data set [14] concerns Cryptococcus neoformans. The data set can be described thus: Antagonistic antifungal activity against wild type Cryptococcus neoformans H99 in presence of caspofungin. The class given is functional, organism-based.
In data set [15] the test system is Aspergillus fumigatus. The data set can be described thus: Antifungal activity against Aspergillus fumigatus assessed as inhibition of fungal growth incubated for 24 to 72 hrs by optical density based analysis. The class given is functional. The settings on record: time 24-72 hrs.
Data set [16] relates to Cryptococcus neoformans. The data set can be described thus: Fungicidal activity against wild type Cryptococcus neoformans H99 assessed as minimum concentration required to kill fungus measured after 96 hrs by time-kill assay. The class given is functional.
Data set [17] deals with Cryptococcus neoformans. Put plainly: Fungicidal activity against wild type Cryptococcus neoformans H99 assessed as minimum concentration required to kill fungus measured after 72 hrs by time-kill assay. The class given is functional.
In data set [18] the test system is Cryptococcus neoformans. The data set can be described thus: Fungicidal activity against wild type Cryptococcus neoformans H99 assessed as minimum concentration required to kill fungus measured after 12 hrs by time-kill assay. The class given is functional.
In data set [19] the test system is Cryptococcus neoformans. The data set can be described thus: Antifungal activity against wild type Cryptococcus neoformans H99 assessed as fractional inhibitory concentration index in presence of fluconazole. The class given is functional.
For data set [20], the system named is Cryptococcus neoformans. The data set can be described thus: Fungicidal activity against wild type Cryptococcus neoformans H99 assessed as minimum concentration required to kill fungus measured after 48 hrs by time-kill assay. The class given is functional.
The subject of data set [21] is Cryptococcus neoformans. The data set can be described thus: Antifungal activity against wild type Cryptococcus neoformans H99 assessed as fractional inhibitory concentration index in presence of amphotericin B. The class given is functional.

Regarding `O=C(N/N=C/c1ccc(Br)cc1O)c1cc(Br)c(Br)s1`, in [1], the CC50 was more than 32 µg/mL. The MIC80 was 1 ng/mL in [2]; 1 ng/mL in [3]; 0.002 µg/mL (≈ 0.00414 µM) in data set [4]; 0.125 µg/mL (≈ 0.259 µM) in [7]; 0.001 µg/mL in data set [13]; 0.06 µg/mL (≈ 0.124 µM) in data set [15]. Further, the outcome in data set [5], in data set [12] and in data set [14] was inactive. The “fractional inhibitory concentration index (FICI)” value in data set [6] is on record as 0.78; in data set [8], 0.78; in data set [10] it was 0.6. Also, the selectivity ratio in data set [9] is more than 533. Besides, the MFC100 in data set [11] was 0.5 µg/mL (≈ 1.04 µM).

Turning to `O=C(N/N=C/c1ccc(Br)cc1O)c1cc(Br)co1`, the CC50 in [1] was determined as 16 µg/mL (≈ 41.2 µM). The MIC80 in [4] stood at 0.5 µg/mL (≈ 1.29 µM). The selectivity ratio in [9] is 32. In [16], the MFC100 amounted to 2 µg/mL (≈ 5.15 µM).

In the case of `O=C(N/N=C/c1ccc(Br)cc1O)c1ccc(Br)o1`, the CC50 in data set [1] was more than 32 µg/mL. Also, the MIC80 in data set [2] amounted to 15 ng/mL; in data set [3] it was 15 ng/mL; in [4], 0.12 µg/mL (≈ 0.309 µM); in [7], 0.5 µg/mL (≈ 1.29 µM); in data set [13] it was 0.015 µg/mL; in data set [15], 0.5 µg/mL (≈ 1.29 µM). The outcome in data set [5], in [12] and in [14] was inactive. Also, the results for the “fractional inhibitory concentration index (FICI)” value in data set [6], in data set [8] and in data set [10] were 0.53, 0.37 and 0.25, respectively. Also, in data set [9], the selectivity ratio was more than 533. Moreover, the MFC100 in data set [11] is 0.5 µg/mL (≈ 1.29 µM).

As to `O=C(N/N=C/c1ccc(Br)cc1O)c1ccc(C(F)(F)F)o1`, the CC50 in data set [1] worked out at 4 µg/mL (≈ 10.6 µM). Besides, the MIC80 in [4] was found to be 1 µg/mL (≈ 2.65 µM). Besides, the selectivity ratio in [9] was found to be 4. Also, the MFC100 in data set [17] is 4 µg/mL (≈ 10.6 µM).

As for `O=C(N/N=C/c1cc(Br)cc(Br)c1O)c1cc(Br)c(Br)o1`, the CC50 in data set [1] was 16 µg/mL (≈ 29.3 µM). In addition, the MIC80 in data set [4] amounted to 0.12 µg/mL (≈ 0.22 µM). Also, the selectivity ratio in data set [9] worked out at 133. For the same molecule, the MFC100 in [18] amounted to 0.12 µg/mL (≈ 0.22 µM).

In the case of `O=C(N/N=C/c1cc(Br)ccc1O)c1csc(Br)c1`, the CC50 in [1] is more than 32 µg/mL. Also, the MIC80 in data set [2] amounted to 1 ng/mL; in data set [3], 2 ng/mL; in data set [4] it was 0.014 µg/mL (≈ 0.0346 µM); in data set [7], 0.125 µg/mL (≈ 0.309 µM); in data set [13] it was 0.015 µg/mL; in data set [15], 1 µg/mL (≈ 2.47 µM). The result in data set [5], in data set [12] and in data set [14] was inactive. In addition, the “fractional inhibitory concentration index (FICI)” value in data set [6] is reported as 0.53; in data set [8], 0.14; in [19] it was 1.1. Further, in data set [9], the selectivity ratio is more than 1070. In addition, the MFC100 in data set [20] is 0.06 µg/mL (≈ 0.148 µM).

For `O=C(N/N=C/c1cc(Br)cc(Br)c1O)c1cc(Br)c(Br)s1`, the CC50 in data set [1] was more than 32 µg/mL. Besides, the MIC80 in [4] was 1 µg/mL (≈ 1.78 µM). Also, the selectivity ratio in data set [9] is more than 32. In [18], the MFC100 was 1 µg/mL (≈ 1.78 µM).

Regarding `O=C(N/N=C/c1cc(Br)ccc1O)c1ccc(Br)o1`, the CC50 in data set [1] is more than 32 µg/mL. Also, the MIC80 in data set [2] came to 15 ng/mL; in data set [3], 60 ng/mL; in [4], 0.12 µg/mL (≈ 0.309 µM); in [7], 1 µg/mL (≈ 2.58 µM); in data set [13], 0.06 µg/mL; in data set [15], 0.25 µg/mL (≈ 0.644 µM). Also, the result in data set [5], in [12] and in data set [14] was inactive. Also, the “fractional inhibitory concentration index (FICI)” value in data set [8] is given as 0.75; in data set [21] it was 1.12; in [10] it was 0.56. In data set [9], the selectivity ratio was more than 533. The MFC100 in data set [11] was 0.25 µg/mL (≈ 0.644 µM).
